Assay results from US20250257336A1, “ISOLATED OR ENGINEERED POLYPEPTIDES, MICROORGANISMS AS WELL AS METHOD FOR SYNTHESIZING POLYPHENOLIC PHYTOCHEMICALS PHOSPHATE DERIVATIVE USING THE POLYPEPTIDES OR MICROORGANISMS” (National Taiwan University, priority 2021, published 2025).

Key:
[1] = D7P vs daidzein, G7P vs genistein; produced with Bacillus subtilis BCRC 80517; cited from earlier work
[2] = enzymatic activity of the PPS of interest and its protein mutant strains, genistein as substrate (G7P formation, HPLC); assay type: biochemical; settings: Mg2+/ATP, 40° C., 10 minutes, pH 7.8, FIG. 30
Procedure: After vibration-based mixing and centrifugation (13,000 rpm, 4° C., 5 minutes), the resulting supernatant was collected, diluted, and then analyzed by HPLC. The activity unit was defined as the amount of enzyme required to yield 1 nmol of product per unit time.
Once an enzyme was prepared, its protein concentration was diluted to 0.1 mg/mL. The enzyme and the enzyme reaction liquid were mixed at a ratio of 1:1 (v/v) and were allowed to react at 40° C. for 10 minutes, at the end of which methanol was added to dilute the protein tenfold and thereby terminate the reaction. The changes in concentration of genistein (GEN) and G7P (a product of GEN phosphorylation) were analyzed. The catalytic activity of the PPS of interest in the present invention and its mutant strains were subsequently calculated and compared, as shown in FIG. 30. […] The activity test results of other protein mutant strains show no total loss of activity but a trend of decrease in activity. […] However, while the aforesaid important catalytic sites in the active domain for stabilizing the phosphate group were inferred with relatively great certainty, the amino acids in Arm1 either had relatively poor prediction results or had important catalytic sites composed of non-polar amino acids (which when substituted with Ala produce little change in property) such that the combined use of site-directed mutagenesis and enzymatic activity determination lacked accuracy.

Molecule: O=c1c(-c2ccc(O)cc2)coc2cc(OP(=O)(O)O)ccc12 [D7P, daidzein 7-O-phosphate]
- water solubility relative to daidzein and genistein, respectively [1]: a hundred thousand times

Molecule: O=c1c(-c2ccc(O)cc2)coc2cc(OP(=O)(O)O)cc(O)c12 [G7P, genistein 7-O-phosphate]
- water solubility relative to daidzein and genistein, respectively [1]: a hundred thousand times

B1: K378A: site-directed mutant of the PPS of interest, Lys378 substituted with Ala (protein)
chain: MKKRGVSNMYSVLFRQAEESSQLAGAKGMNLIKLTKHGLPVPDGFIIQTNALARFMEDNQLQETSENVESGIISGTFSDELKDELTSSFYKLRESYRSVAVRSSSASEDLEGASFAGQYETYLNIKTEEEFLAKVKECWASFFSGRVSSYKKKMNNQIAEPLMGIVVQGLIDSEMSGVIFSRNPVTHDDRELLISASYGLGEAVVSGSVTPDTFIVNKSSFEIQKEIGAKEIYMESAAEGIAEKETSEDMRSRFCLTDEQVIELAEITKKTEDLYGYPVDIEFGIADHQIYLLQARPITTIDQDKKAAEEKRSFMITDTDMNDFWLNMESNIEGPVSPLFSSFIVPALEYGLKKSMQKFPIGVVVDEVKLYRGHIYSANQGGQQPPSEDCGKELFPILSEHMYDIINHTYLPFYRTLDQLAQTEHTAESALDAFQKLKAFYLTAYEEHFNIVFPQILLTNKLQAMYQDIQGESENAHFYEMLTGKMNKSLETDRCLWLFSMEVQENPNLLTIFENNKPEQLQEKLEQTDEGRHFLKNVHEFLQEYGWRSVKSHDLIEQIWVENPYFALANIQNYVRNGYHFDNEFQKTKEKREKLYNEFLENIEDPGLRTEFDRYYQWTLNSANIKDDHHFYIDAMLDAKARIFLLKIGELLAENGVIQDREDLWFLYDDEVEQALLHPVSLQEKAEKRRQIFHEYELAQAPAYLGTPTKEQLKAAEEIVGAVIEDEKNTENHIFGIAASSGIATGPVKIIRDANEFSQFAPGDVLVCKMTTPLWTSLFQDAKAIITDTGGILSHAAIIAREYGIPAVLGTRTATERLRDGDIITVDGSSGKITVVSRS
- catalytic activity (relative specific activity) compared with the PPS of interest [2]: relatively significant decrease in activity
